Laboratory results: US20040002842A1, “Methods and systems for analyzing complex biological systems” (priority 2001, published 2004)

Tests used:
Format in all cases: cell-based
[1] = tested on: Saccharomyces cerevisiae wild type strain BY4743; experiment: AF1 yeast gene expression analysis (microarray, KEGG pathway mapping); conditions: for # Transcripts perturbed by treatment: 2×MIC, two hours; for Number of Pathways Affected by at Least One Gene, # Pathways: p < 0.05, KEGG mapping
Experimental: Saccharomyces cerevisiae wild type strain BY4743 was purchased from American Type Culture Center (ATCC, Manassas, Va.). The yeast strain was grown in YPD or SD media. H. […] The cultures started from fresh single colonies were grown in 1.0 ml YPD overnight at 30° C. […] The OD600 was adjusted to 1.0 with YPD media, then 2.0 ml of each was inoculated into three 250 ml flasks, each containing 50 ml of SD media. […] The cells were kept growing for another two hours, then collected by centrifugation at 4000 rpm for 5 minutes at 4° C. Pellets were washed once with ice-cold water, then were lyophilized overnight at 4° C. […] Tubes were vortexed for 30 seconds, then incubated for 10 minutes at room temperature (RT). […] Tubes were incubated for 10 minutes at RT. Samples were centrifuged for 20 minutes as before. Pellets were washed with 400 μl 70% ethanol and centrifuged for 10 minutes as before. The pellet was then dissolved in 100 μl nuclease-free water. RNA quality was determined using the Bioanalyzer 2100 and the RNA 6000 assay (Agilent Technologies, Palo Alto, Calif.) according to manufacturer's instructions. RNA concentrations were determined spectrophotometrically by measuring the absorption at 260 nm in an Ultrospec 2000 (Pharmacia Biotech, Piscataway, N.J.). […] Labeled cRNAs were evaluated using the RNA 6000 assay on the Agilent Bioanalyzer 2100. Labeled cRNA concentrations were determined spectrophotometrically by measuring the absorption at 260 nm in an Ultrospec 2000 (Pharmacia Biotech, Piscataway, N.J.). […] Each pair of samples to be hybridized were independently labeled and hybridized utilizing a fluor reversal for a total of two hybridizations per sample pair. The microarrays were scanned simultaneously in the Cy3 and Cy5 channels with Agilent's 48-slide, Dual Laser DNA Microarray Scanner (Agilent Technologies, Palo Alto, Calif.) at 10 μm resolution using default settings. Image Analysis Software (Version A.4.0.45, Agilent Technologies, Palo Alto, Calif.) was used for image analysis. Each feature was determined from an array's associated pattern file and a detection algorithm. Intensity values for each feature were determined after subtracting background derived from an average of negative control features. Features with unusual pixel intensity statistics (e.g., high non-uniformity, saturation in either channel, and the like) were excluded from downstream analyses. Data was loaded into the Rosetta RESOLVER database (Rosetta Inpharmatics Inc., Kirkland, Wash.) for storage and analysis. Data was evaluated after combining results from fluor reversal replicate hybridizations. The annotation of yeast ORFs was obtained from Proteome BIOKNOWLEDGE Library (Incyte Genomics, Palo Alto, Calif.). In AF1, two different technologies were utilized: gene expression analysis (for examination of mRNA expression) and metabolite analysis. […] As noted previously, existing metabolic databases may be helpful in practicing the methods and systems of the present invention, but many databases include limitations that make their use in data analysis and pathway mapping less than straightforward. […] This caveat to KEGG makes it difficult to pinpoint the correct pathway when attempting to link a gene to a specific pathway. The pathway score indicates how meaningful the mapping is, or how likely it is to be correctly indicative of the pathway involved in the perturbation under examination. The method provides a pathway score based on perturbation levels of genes and/or compounds and the information content of each gene and/or compound in the pathway, i.e., a pathway score indicates the extent to which other pathways are mapped to a gene/compound. For example, imagine that two genes are perturbed in a particular experiment.

[2] = tested on: Saccharomyces cerevisiae wild type strain BY4743; experiment: AF1 yeast metabolite analysis by GC-MS and LC-MS; conditions: for # Compounds perturbed by treatment: 2×MIC, two hours
[3] = tested on: Saccharomyces cerevisiae wild type strain BY4743; experiment: AF1 combined gene expression and metabolite data (reactions, pathways, cluster analysis)
From the text: The data were then combined to determine the number of reactions showing an enzyme and at least one compound perturbed, and to determine the number of pathways having at least one enzyme and one perturbed compound perturbed. The results of the analysis are represented in Tables 16 and 17, and were difficult to interpret, illustrating that the ability to draw conclusions from compound mapping to pathways is limited when absent additional data. […] A coherent data set was created from data obtained from the four above-described drug compounds. The data were reduced by using principle components analysis and cluster analysis.

## C[C@@H]1[C@H](O)[C@@H](C)/C=C/C=C/C=C/C=C/C=C/C=C/C=C/[C@H](O[C@@H]2O[C@H](C)[C@@H](O)[C@H](N)[C@@H]2O)C[C@@H]2O[C@](O)(C[C@@H](O)C[C@@H](O)[C@H](O)CC[C@@H](O)C[C@@H](O)CC(=O)O[C@H]1C)C[C@H](O)[C@H]2C(=O)O [Amphoteracin B]
[1]; P < 0.05
  # Transcripts perturbed by treatment: 4363
[1]; P < 0.1
  # Transcripts perturbed by treatment: 4652
[1]
  Number of Pathways Affected by at Least One Gene, # Pathways: 97
[2]; P < 0.05
  # Compounds perturbed by treatment: 16
[2]; P < 0.1
  # Compounds perturbed by treatment: 21
[3]
  Number of Reactions Having an Enzyme and at Least One Compound Perturbed, # Reactions: 54

## OC(Cn1cncn1)(Cn1cncn1)c1ccc(F)cc1F [Fluconazole]
[1]
  Number of Pathways Affected by at Least One Gene, # Pathways: 79
[2]; P < 0.05
  # Compounds perturbed by treatment: 2
[2]; P < 0.1
  # Compounds perturbed by treatment: 6
[2]; Platform GC
  Fold Change: TMS mevalonic acid lactone: 0.1434
  Fold Change: squalene: 0.1999
  Fold Change: sugar?: 0.4817
  Fold Change: tetradecanoic acid: 0.07967
  Fold Change: threonine2: 0.5053
  Fold Change: threonine3: 0.2513
  Fold Change: tms glutamine3: 0.7271
  Fold Change: tms lysine4: 0.3657
  Fold Change: tms tyrosine2: 0.8643
  Fold Change: tms tyrosine3: 0.3321
  Fold Change: valine: 0.2727
[2]; Platform nLC
  Fold Change, benzoic acid: 0
  Fold Change: retinoic acid: 0
  Fold Change: salicylic/HObenzoic: 0
  Fold Change: selenoDLmethionine: −0.5748
  Fold Change: serine: 0.3936
  Fold Change: shikimic acid: 0
  Fold Change: sinapinic acid: 0
  Fold Change: sorbitol/mannitol: 0.365
  Fold Change: succinic: 0.3094
  Fold Change: sucrose: 0.3104
  Fold Change: sugar-phosphate: −0.05306
  Fold Change: tetradecanoic acid: 0.5495
  Fold Change: threonine/homoserin: 0.3257
  Fold Change: thymine: 0
  Fold Change: tryptophan: 1.649
  Fold Change: tyrosine: 0.2303
  Fold Change: uracil: 1.256
  Fold Change: uridine: 0.3463
  Fold Change: urocanic acid: 0
  Fold Change: valine: 0.3235
  Fold Change: xanthosineDiH2O: 0
  Fold Change: zeatin: 0
[2]; Platform pLC
  Fold Change: riboflavin: 0
  Fold Change: selenoDLmethionine: −0.6865
  Fold Change: serine: 0.11
  Fold Change: sugar-phosphate: 0
  Fold Change: thiamine: 0
  Fold Change: threonine/homoserin: 0.1604
  Fold Change: thymine: 0
  Fold Change: tryptophan: 0
  Fold Change: tyrosine: 0.1099
  Fold Change: uric acid: 0
  Fold Change: urocanic acid: 0
  Fold Change: xanthosine(diH2O): 0
  Fold Change: zeatin: 0
[3]
  Number of Reactions Having an Enzyme and at Least One Compound Perturbed, # Reactions: 2

## CC(=O)N1CCN(c2ccc(OCC3COC(Cn4ccnc4)(c4ccc(Cl)cc4Cl)O3)cc2)CC1 (centres unmarked) [Ketoconazole]
[1]
  Number of Pathways Affected by at Least One Gene, # Pathways: 90
[2]; P < 0.1
  # Compounds perturbed by treatment: 15
[3]
  Number of Reactions Having an Enzyme and at Least One Compound Perturbed, # Reactions: 21
